The text below walks through data of patent publication US20150051220A1, “COMPOUNDS FOR USE IN THERAPY” (GLUCOX BIOTECH AB, priority 2012, published 2015).

The assay in a line: Stroke model, transient middle cerebral artery occlusion (tMCAO). The assay is classed as in vivo. Conditions: mice, 60 min tMCAO, 3.2 mg/kg i.p. at 2 h and 12 h, sacrificed 24 h after tMCAO, vs vehicle. As for the experimental part: FIG. 4 is a bar chart showing the infarct volume (mm3) in a mice model of stroke, where mice were treated with the inventive compound ethyl 2-(2-(4-(furan-2-carbonyl)piperazin-1-yl)acetamido)-5,6-dihydro-4H-cyclopenta[b]thiophene-3-carboxylate (“INVENTION”) or with vehicle (“CONTROL”).
The stroke disease model used in this example was mice that were subjected to transient middle cerebral artery occlusion (tMCAO) to mimic the mechanisms of ischemic stroke. Male mice weighing 20 g, was subjected to a 60 min of tMCAO as previously described (Elevers M et al., Sci. Signal 3: ra1, 2010; Bena_Erro A et al., Sci Signal 2: ra67). Sham-operated mice were used as control.
For the i.p. administrations performed in this study, 3.5 mg of ethyl 2-(2-(4-(furan-2-carbonyl)piperazin-1-yl)acetamido)-5,6-dihydro-4H-cyclopenta[b]thiophene-3-carboxylate was dissolved in 1 ml of DMSO and 5 ml of 20% Cremophor ELP in PBS then followed by additional PBS. The administered dose used in the experiment was 3.2 mg/kg and in the controls the same injection volume of vehicle was used. Administration was made at 2 h and 12 h for each mouse.
To determine infarct size and effect of Nox4 inhibitor, mice were sacrificed 24 h after tCMCAO and lesion volumes of the brain were determined according to a previously described methodology (Kleinschnitz et al, vide supra).

Take `CCOC(=O)c1c(NC(=O)CN2CCN(C(=O)c3ccco3)CC2)sc2c1CCC2` [the inventive compound, ethyl 2-(2-(4-(furan-2-carbonyl)piperazin-1-yl)acetamido)-5,6-dihydro-4H-cyclopenta[b]thiophene-3-carboxylate]: the “lesion volume of the brain (infarct volume)” value was “significantly lower lesion volume of the brain”.
